Experimental data from ChEMBL document CHEMBL1158328, “Three new pseudodistomins, piperidine alkaloids from the ascidian Pseudodistoma megalarva” (1997).

Tests used:
Assay type in all cases: functional
Saccharomyces cerevisiae [1] = assay: DNA damaging activity against wild-type Saccharomyces cerevisiae assessed as drug level required to produce 12 mm zone of inhibition assessed per 100 uL after 48 hrs
Saccharomyces cerevisiae [2] = assay: DNA damaging activity against RAD52 DNA repair gene deficient Saccharomyces cerevisiae mutant assessed as drug level required to produce 12 mm zone of inhibition assessed per 100 uL after 48 hrs
Saccharomyces cerevisiae [3] = assay: DNA damaging activity against RAD52 DNA repair gene/topoisomerase 1 deficient Saccharomyces cerevisiae GAL4:RAD52 mutant assessed as drug level required to produce 12 mm zone of inhibition assessed per 100 uL in glucose medium after 48 hrs
Saccharomyces cerevisiae [4] = assay: DNA damaging activity against RAD52 DNA repair gene/topoisomerase 1 deficient Saccharomyces cerevisiae GAL4:RAD52 mutant assessed as drug level required to produce 12 mm zone of inhibition assessed per 100 uL in galactose medium after 48 hrs

COc1cc(NS(C)(=O)=O)ccc1Nc1c2ccccc2nc2ccccc12 [AMSACRINE]
Activity (Saccharomyces cerevisiae [1]): >20 µg
Activity (Saccharomyces cerevisiae [2]): 8.2 µg
Activity (Saccharomyces cerevisiae [3]): 2.7 µg
Activity (Saccharomyces cerevisiae [4]): >20 µg

CCCC/C=C/C=C/CCCCC[C@@H]1C[C@@H](O)[C@@H](N)CN1 [PSEUDODISTOMIN B]
Activity (Saccharomyces cerevisiae [1]): 13 µg
Activity (Saccharomyces cerevisiae [2]): 1.8 µg
Activity (Saccharomyces cerevisiae [3]): 1.5 µg
Activity (Saccharomyces cerevisiae [4]): 1.5 µg

CCCC/C=C/C=C/CCC/C=C/C=C/[C@@H]1C[C@H](O)[C@H](N)CN1 [PSEUDODISTOMIN C]
Activity (Saccharomyces cerevisiae [1]): 38 µg
Activity (Saccharomyces cerevisiae [2]): 20 µg
Activity (Saccharomyces cerevisiae [3]): 12 µg
Activity (Saccharomyces cerevisiae [4]): 13 µg

CCCC/C=C/C=C/CCCCC[C@@H]1C[C@H](O)[C@@H](N)CN1 [PSEUDODISTOMIN D]
Activity (Saccharomyces cerevisiae [1]): 11 µg
Activity (Saccharomyces cerevisiae [2]): 3.8 µg
Activity (Saccharomyces cerevisiae [3]): 1.9 µg
Activity (Saccharomyces cerevisiae [4]): 2 µg

CCCC/C=C/C=C/CCCCC[C@@H]1C[C@H](O)[C@H](N)CN1 [PSEUDODISTOMIN E]
Activity (Saccharomyces cerevisiae [1]): 12 µg
Activity (Saccharomyces cerevisiae [2]): 4.3 µg
Activity (Saccharomyces cerevisiae [3]): 1.8 µg
Activity (Saccharomyces cerevisiae [4]): 2.3 µg

CCCC/C=C/C=C/CCC/C=C/C=C/[C@@H]1C[C@@H](O)[C@@H](N)CN1 [PSEUDODISTOMIN F]
Activity (Saccharomyces cerevisiae [1]): 20 µg
Activity (Saccharomyces cerevisiae [2]): 9 µg
Activity (Saccharomyces cerevisiae [3]): 3.1 µg
Activity (Saccharomyces cerevisiae [4]): 3.3 µg

CO[C@H]1C[C@@H]2CC[C@@H](C)[C@@](O)(O2)C(=O)C(=O)N2CCCC[C@H]2C(=O)O[C@H]([C@H](C)C[C@@H]2CC[C@@H](O)[C@H](OC)C2)CC(=O)[C@H](C)/C=C(\C)[C@@H](O)[C@@H](OC)C(=O)[C@H](C)C[C@H](C)/C=C/C=C/C=C/1C [SIROLIMUS]
Activity (Saccharomyces cerevisiae [1]): 0.00043 µg
Activity (Saccharomyces cerevisiae [2]): 0.00057 µg
Activity (Saccharomyces cerevisiae [3]): 0.00044 µg
Activity (Saccharomyces cerevisiae [4]): 0.00074 µg

COC1=C(N)C(=O)c2nc(-c3nc(C(=O)O)c(C)c(-c4ccc(OC)c(OC)c4O)c3N)ccc2C1=O [STREPTONIGRIN]
Activity (Saccharomyces cerevisiae [1]): >0.1 µg
Activity (Saccharomyces cerevisiae [2]): 0.012 µg
Activity (Saccharomyces cerevisiae [3]): 0.009 µg
Activity (Saccharomyces cerevisiae [4]): >0.1 µg
